Here are results for six compounds from patent US5077289A (priority 1989, dated 1991).

Counter-ions that a name gives are not always drawn. Like-named read-outs stand apart in the source and are kept apart here.

In test [1] the test system is Scopolamine Induced Memory Deficit. Kind of test: Dark Avoidance Assay (reversal of scopolamine induced memory deficit). The class given is in vivo. The note with it: mice, s.c. Here is the method:
In this assay mice are tested for their ability to remember an unpleasant stimulus for a period of 24 hours. A mouse is placed in a chamber that contains a dark compartment; a strong incandescent light drives it to the dark compartment, where an electric shock is administered through metal plates on the floor. The animal is removed from the testing apparatus and tested again, 24 hours later, for the ability to remember the electric shock.
If scopolamine, an anticholinergic that is known to cause memory impairment, is administered before an animal's initial exposure to the test chamber, the animal re-enters the dark compartment shortly after being placed in the test chamber 24 hours later. This effect of scopolamine is blocked by an active test compound, resulting in a greater interval before re-entry into the dark compartment.
The results for an active compound are expressed as the percent of a group of animals in which the effect of scopolamine is blocked, as manifested by an increased interval between being placed in the test chamber and re-entering the dark compartment.

Test [2] deals with 2-phenyl-1,4-benzoquinone-induced writhing. Description: Inhibition of phenylquinone-induced writhing in mice (PQW), analgesic activity. The class given is in vivo, mice (male CD-1 Charles River). The note with it: Mus musculus, sc, read-out: ANALGESIC ACTIVITY, POW (ED50). The protocol: Compounds I of the present invention are also useful as analgesic agents due to their ability to alleviate pain in mammals. […] Exptl. Biol. Med., 95, 729 (1957)].
A 0.125% concentration of phenyl-p-benzoquinone in a 5% aqueous solution of ethyl alcohol is administered to mice (10 mL/kg, ip). This produces a characteristic "writhe" which is defined as an inward rotation of one or more feet with twisting and turning of the trunk, drawing in of the abdominal wall, lordosis, and arching of the back. A total of 28 male CD-1 Charles River mice (18-30 g) are employed for a time-response. Animals receive food and water ad libitum during their stay in the animal quarters prior to testing. Compounds are tested at 20 mg/kg, sc and are prepared with distilled water, and if insoluble one drop of Tween-80, a surfactant is added. Compounds are administered in a dosage volume of 10 mL/kg.
Twenty mice (five per group) are administered the test compound at various pretreat time (e.g., 15, 30, 45, and 60 min) prior to phenylquinone injection. Control animals (two per group) receive an equal volume of vehicle. After the administration of phenylquinone, the mice are placed separately into 1-L beakers, and 5 min are allowed to elapse. The mice are then observed for a period of 10 min, and the number of writhers is recorded for each animal. The formula for computing percent inhibition is [formula]
The time period with the maximum percent of inhibition is considered the peak time. A dose-response is reserved for interesting compounds or those which inhibit writhing by 70% or more. A dose-response is run in the same manner as a time-response except 10 animals per group are tested at the peak time of drug activity. Fifty animals, divided among four drug groups and one vehicle control group, are employed. The mice are normally given four doses of drug, each twice the amount of the preceding dose. An ED50 is calculated by a computer linear regression analysis.
Results of this assay for some of the compounds of this invention and eseroline salicylate (reference compound) are shown in Table 3.

Another test concerns the target T1, Brain AChE (Rattus norvegicus, UniProt P37136).
T1 construct: brains rapidly removed, corpora striata dissected free, weighed and homogenized in 19 volumes; from tissue; host or cells: corpus striatum homogenate of male Wistar rats
T1 sequence (P37136 32-614): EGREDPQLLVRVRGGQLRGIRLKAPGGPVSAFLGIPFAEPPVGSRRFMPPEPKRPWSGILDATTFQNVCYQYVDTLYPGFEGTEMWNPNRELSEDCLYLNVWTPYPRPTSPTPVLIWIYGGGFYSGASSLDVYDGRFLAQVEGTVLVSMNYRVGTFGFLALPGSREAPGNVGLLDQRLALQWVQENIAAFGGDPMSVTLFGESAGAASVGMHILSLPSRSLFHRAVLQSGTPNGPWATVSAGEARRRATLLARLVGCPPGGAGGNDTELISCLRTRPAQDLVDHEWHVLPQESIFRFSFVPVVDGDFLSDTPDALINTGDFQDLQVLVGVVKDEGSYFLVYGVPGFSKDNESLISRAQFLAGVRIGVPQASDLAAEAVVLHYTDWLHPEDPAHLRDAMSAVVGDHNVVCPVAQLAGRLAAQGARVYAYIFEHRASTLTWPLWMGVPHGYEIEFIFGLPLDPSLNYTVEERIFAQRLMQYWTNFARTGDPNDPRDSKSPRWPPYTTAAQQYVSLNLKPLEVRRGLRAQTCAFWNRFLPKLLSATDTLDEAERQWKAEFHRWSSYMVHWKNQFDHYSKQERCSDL
Kind of test: In vitro inhibition of acetylcholinesterase activity in rat striatum (modified Ellman). The class given is biochemical, rat (male Wistar). Here is the method:
Cholinesterases are found throughout the body, both in the brain and in serum. However, only brain acetylcholinesterase (AChE) distribution is correlated with central cholinergic innervation.
This is a modification of the method of Ellman et al., Biochem. Pharmacol. 7, 98 (1961).
1. 0.05M Phosphate buffer, pH 7.2
(a) 6.85 g NaH2 PO4 .cndot.H2 O/100 ml distilled H2 O
(c) add (a) to (b) until pH reaches 7.2
(a) 9.9 mg 5,5-dithiobisnitrobenzoic acid (DTNB) (0.25 mM)
(c) q.s. to 100 ml with 0.05M phosphate buffer, pH 7.2 (reagent 1)
3. For most assays, a […] stock solution of the test drug is made up in a suitable solvent and serially diluted such that the final concentration in the preincubation step ranges from 10^-3 to 10^-6 M. Different concentrations may be used depending on the potency of the drug. […]
Following the 10 minute preincubation of the tissue (enzyme) with the inhibitor, the samples are mixed with the substrate chromogen buffer by the ABA-100. Using the indicated instrument settings the ABA-100 automatically reads the color reaction and prints out the results in enzyme units after 15 minutes.
2. The enzyme activity can also be measured with a Gilford 250 spectrophotometer. […]
The uninhibited activity of the enzyme (tissue homogenate) is first determined. […] The reaction rate is determined by the slope of the recorded absorbance change. […]
On the technique in general: Ellman's reagent forms a yellow product with free thiols.

With `CCCNC(=O)N(CCC)C(=O)Oc1ccc2c(c1)[C@]1(C)CCN(C)[C@@H]1N2C` [Example 4, (3aS-cis)-1,2,3,3a,8,8a-Hexahydro-1,3a,8-trimethylpyrrolo[2,3-b]indol-5-yl propyl[(propylamino)carbonyl] carbamate oxalate], the “% of Animals with Scopolamine Induced Memory Deficit Reversal” value (from here on “% of Animals”) in test [1] (0.16 mg/kg of body weight) was 40%; in test [1] (2.50 mg/kg of body weight), 36%.
Take `CNC(=O)N(C)C(=O)Oc1ccc2c(c1)[C@]1(C)CCN(C)[C@@H]1N2C` [Example 1, (3aS-cis)-1,2,3,3a,8,8a-Hexahydro-1,3a,8-trimethylpyrrolo[2,3-b]indol-5-yl methyl[(methylamino)carbonyl] carbamate]: the “% of Animals” value in test [1] (0.16 mg/kg of body weight) came to 20%. For the same compound, the 50% effective dose (ED50) (in general, the dose at which the effect has come halfway, by size or by number of responders) in test [2] came to 8 mg/kg.
Regarding `CN(C(=O)Nc1cccc(Cl)c1)C(=O)Oc1ccc2c(c1)[C@]1(C)CCN(C)[C@@H]1N2C` [Example 5, (3aS-cis)-1,2,3,3a,8,8a-Hexahydro-1,3a,8-trimethylpyrrolo[2,3-b]indol-5-yl methyl[[(3-chlorophenyl)amino]carbonyl] carbamate], on Brain AChE, half-maximal inhibition (IC50) required 207 nM. In addition, the ED50 in test [2] is 0.15 mg/kg.
Regarding `CN1CC[C@@]2(C)c3cc(O)ccc3N(C)[C@@H]12` [Eseroline Salicylate, reference compound], the median effective dose (ED50) in test [2] (mice, s.c., ED50 by linear regression per method, at peak time) came out at 0.52 mg/kg.
As to `CNC(=O)Oc1ccc2c(c1)[C@]1(C)CCN(C)[C@@H]1N2C` [Physostigmine, reference compound], the “% of Animals” value in test [1] (0.31 mg/kg of body weight) is on record as 20%.
Consider `CNC(=O)N(C)C(=O)Oc1cc(C)c2c(c1)[C@]1(C)CCN(C)[C@@H]1N2C` [Example 2, (3aS-cis)-1,2,3,3a,8,8a-Hexahydro-1,3a,7,8-tetramethylpyrrolo[2,3-b]indol-5-yl methyl[(methylamino)carbonyl] carbamate], for which the 50% effective dose (ED50) in test [2] stood at 0.81 mg/kg.
